Data on 1 molecule can be found in paper PMC3356383, “Efficacious Intermittent Dosing of a Novel JAK2 Inhibitor in Mouse Models of Polycythemia Vera” (PLoS ONE, 2012).

The structures appear in SMILES notation.

For this data set, the system named is darbepoetin-induced polycythemia and splenomegaly. Kind of data set: Darbepoetin-induced model of polycythemia. It counts as in vivo, C57BL/6 mice. The conditions noted are these: 7 days. As for the experimental part: C57BL/6 mice (Charles River Laboratories, Wilmington, MA) aged 4–6 weeks were dosed with MRLB-11055 in vehicle (10%v/v polysorbate 80) or with vehicle alone. All dosing was done by oral gavage (10 ml/kg body weight/day). Inhibition of darbepoetin-induced polycythemia and splenomegaly by MRLB-11055 was measured as described previously.

As for `NC(=O)c1cnc(N[C@H](C2CC2)C(F)(F)F)c2c1[nH]c1cc(-c3cnc(N)nc3)ccc12` [MRLB-11055], the “Effect on WBC” value (5, 15, 25 and 40 mpk once daily) is “dose-dependent trend towards WBC reduction, that did not reach statistical significance”. Besides, under “40 mpk orally once daily”, the “Efficacy, prevention of elevated hematocrit (Hct)” value worked out at 76% and the “Efficacy, prevention of elevated spleen weight (SPL)” value is listed as 87%.
